# System: human PBMCs
# Assay: Human PBMC cytokine response assay (IFN-γ and IFN-α in cell-free medium by ELISA), with or without cPLGA;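 for IFN-α (pg/ml) mean: 20 µg/mL compound for 24 hours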;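 for IFN-γ (pg/ml) mean: 20 µg/mL compound for 24 hours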
# Format: cell-based
# Settings: for immunomodulatory activity (IFN-γ / IFN-α secretion), in words: used alone (no cPLGA); for IFN-a (pg/ml) mean / IFN-g (pg/ml) mean: mean of donors 28185-28188; for IFN-a (pg/ml) ×2: mean ×2; for IFN-g (pg/ml) ×4: mean ×4
# [1] = Example 59, 0.8 ug/ml, donor 48
# [2] = Example 59, 0.8 ug/ml, donor 177
# [3] = Example 59, 0.8 ug/ml, donor 272
# [4] = Example 59, 0.8 ug/ml, donor 273
# [5] = Example 59, 0.8 ug/ml, mean of four donors
# [6] = Example 59, 4 ug/ml, mean of four donors
# [7] = Example 59, 20 ug/ml, donor 177
# [8] = Example 59, 20 ug/ml, donor 272
# [9] = Example 59, 20 ug/ml, donor 273
# [10] = Example 59, 20 ug/ml, mean of four donors
# [11] = Table 24, mean of donors 28234-28237
# [12] = mean of donors 28057-28060, Table 16
# [13] = Table 25, mean of donors 28250-28253
# [14] = donor 28066, 20 ug/ml, 24 h, + PLGA = premixed with 100 μg/ml cPLGA
# [15] = donor 28067, 20 ug/ml, 24 h, + PLGA = premixed with 100 μg/ml cPLGA
# [16] = donor 28068, 20 ug/ml, 24 h, + PLGA = premixed with 100 μg/ml cPLGA
# [17] = mean of donors 28065-28068, 20 ug/ml, 24 h, + PLGA = premixed with 100 μg/ml cPLGA
compound,measurement,setting,value
"(5′-TCGAACGTTCGA-3′ (SEQ ID NO: 155)-HEG)2-glycerol-HEG-3′-AGCTTGCAAGCT-5′ (SEQ ID NO: 155) (DNA, all phosphorothioate, methylation of C not given here; Three DNA copies joined by HEG spacers and glycerol branching, one copy inverted) [Compound C-174]",IFN-α,"Example 58, 0.8 ug/ml, donor 1",7907 pg/mL
same,IFN-α,"Example 58, 0.8 ug/ml, donor 2",11198 pg/mL
same,IFN-α,"Example 58, 0.8 ug/ml, donor 3",998 pg/mL
same,IFN-α,"Example 58, 0.8 ug/ml, donor 4",1752 pg/mL
same,IFN-α mean,"Example 58, 0.8 ug/ml, mean of four individuals",5464 pg/mL
same,IFN-α,"Example 58, 4 ug/ml, donor 1",5601 pg/mL
same,IFN-α,"Example 58, 4 ug/ml, donor 2",7845 pg/mL
same,IFN-α,"Example 58, 4 ug/ml, donor 3",1016 pg/mL
same,IFN-α,"Example 58, 4 ug/ml, donor 4",5895 pg/mL
same,IFN-α mean,"Example 58, 4 ug/ml, mean of four individuals",5089 pg/mL
same,IFN-α,"Example 58, 20 ug/ml, donor 1",1350 pg/mL
same,IFN-α,"Example 58, 20 ug/ml, donor 2",1176 pg/mL
same,IFN-α,"Example 58, 20 ug/ml, donor 3",61 pg/mL
same,IFN-α,"Example 58, 20 ug/ml, donor 4",837 pg/mL
same,IFN-α mean,"Example 58, 20 ug/ml, mean of four individuals",856 pg/mL
same,"IFN-α from human PBMC compared with parent oligonucleotide P-17, in words","low doses (e.g., 0.8 ug/ml), four individuals",induce significantly more IFN-α
"5′-GsGs-3′-C3-5′-TGC-3′-C3-5′-ATCGAT-3′-C3-5′-GCA-3′-C3-5′-GGsGsGsGsG-3′ (s = phosphorothioate linkages, otherwise linkages are phosphodiester) [Compound C-84]",IFN-α,"Table 11, donor 28042",0 pg/mL
same,IFN-γ,"Table 11, donor 28042",29 pg/mL
same,IFN-α,"Table 11, donor 28043",0 pg/mL
same,IFN-γ,"Table 11, donor 28043",23 pg/mL
same,IFN-α,"Table 11, donor 28044",5 pg/mL
same,IFN-γ,"Table 11, donor 28044",69 pg/mL
same,IFN-α,"Table 11, donor 28045",222 pg/mL
same,IFN-γ,"Table 11, donor 28045",232 pg/mL
same,IFN-α mean,"Table 11, mean of donors",57 pg/mL
same,IFN-γ mean,"Table 11, mean of donors",88 pg/mL
"(5′-TCGACGT-HEG)2-glycerol-HEG-5′-ACTTAGAGGTTCAGTAGG-3′ (SEQ ID NO: 157) (DNA, all phosphorothioate, methylation of C not given here; Two heptamer DNA arms joined by HEG spacers and glycerol branching to the chain) [Compound C-202]",IFN-α,[1],830 pg/mL
same,IFN-α,[2],102 pg/mL
same,IFN-α,[3],102 pg/mL
same,IFN-α,[4],102 pg/mL
same,IFN-α mean,[5],284 pg/mL
same,IFN-α,"Example 59, 4 ug/ml, donor 48",2250 pg/mL
same,IFN-α,"Example 59, 4 ug/ml, donor 177",2482 pg/mL
same,IFN-α,"Example 59, 4 ug/ml, donor 272",1222 pg/mL
same,IFN-α,"Example 59, 4 ug/ml, donor 273",215 pg/mL
same,IFN-α mean,[6],1542 pg/mL
same,IFN-α,"Example 59, 20 ug/ml, donor 48",1901 pg/mL
same,IFN-α,[7],2742 pg/mL
same,IFN-α,[8],612 pg/mL
same,IFN-α,[9],339 pg/mL
same,IFN-α mean,[10],1399 pg/mL
(5′-TCGTCGA-3′-TEG)2-glycerol-TEG-5′-TCGTCGA-3′ [Compound C-103],IFN-α,"Table 24, donor 28234",16 pg/mL
same,IFN-γ,"Table 24, donor 28234",21 pg/mL
same,IFN-α,"Table 24, donor 28235",21 pg/mL
same,IFN-γ,"Table 24, donor 28235",44 pg/mL
same,IFN-α,"Table 24, donor 28236",126 pg/mL
same,IFN-γ,"Table 24, donor 28236",250 pg/mL
same,IFN-α,"Table 24, donor 28237",213 pg/mL
same,IFN-γ,"Table 24, donor 28237",1854 pg/mL
same,IFN-α mean,[11],94 pg/mL
same,IFN-γ mean,[11],542 pg/mL
same,"IFN-α induction, in words",used alone,HEG (C-94)>TEG (C-103)>C3 (C-104)=no linker (C-28)
5′-TCGTCG-3′-(HME)15-5′-T-3′ [Compound C-14],IFN-α,"donor 28057, Table 16",0 pg/mL
same,IFN-γ,"donor 28057, Table 16",3 pg/mL
same,IFN-α,"donor 28058, Table 16",0 pg/mL
same,IFN-γ,"donor 28058, Table 16",1 pg/mL
same,IFN-α,"donor 28059, Table 16",0 pg/mL
same,IFN-γ,"donor 28059, Table 16",1 pg/mL
same,IFN-α,"donor 28060, Table 16",0 pg/mL
same,IFN-γ,"donor 28060, Table 16",3 pg/mL
same,"activity when formulated with cPLGA, in words",,all had significant activity when formulated on cPLGA
same,IFN-α (pg/ml) mean,[12],0 pg/mL
same,IFN-γ (pg/ml) mean,[12],2 pg/mL
same,"immunomodulatory activity (IFN-γ / IFN-α secretion), in words",,None of the CICs was active when used alone
OCC(O)CO [Glycerol],IFN-a,"Table 25, donor 28250",16 pg/mL
same,IFN-g,"Table 25, donor 28250, polynucleotides/spacers at amounts equivalent to the CIC, spacers alone 9 uM",16 pg/mL
same,IFN-a,"Table 25, donor 28251",16 pg/mL
same,IFN-g,"Table 25, donor 28251",12 pg/mL
same,IFN-a,"Table 25, donor 28252",16 pg/mL
same,IFN-g,"Table 25, donor 28252",2 pg/mL
same,IFN-a,"Table 25, donor 28253",16 pg/mL
same,IFN-g,"Table 25, donor 28253",1 pg/mL
same,IFN-a mean,[13],16 pg/mL
same,IFN-g mean,[13],8 pg/mL
5′-TCGTCG-3′-(TEG)8-5′-T-3′ [Compound C-15],IFN-α,"donor 28057, Table 16",0 pg/mL
same,IFN-γ,"donor 28057, Table 16",5 pg/mL
same,IFN-α,"donor 28058, Table 16",0 pg/mL
same,IFN-γ,"donor 28058, Table 16",3 pg/mL
same,IFN-α,"donor 28059, Table 16",0 pg/mL
same,IFN-γ,"donor 28059, Table 16",0 pg/mL
same,IFN-α,"donor 28060, Table 16",0 pg/mL
same,IFN-γ,"donor 28060, Table 16",1 pg/mL
same,"activity when formulated with cPLGA, in words",,all had significant activity when formulated on cPLGA
same,IFN-α (pg/ml) mean,[12],0 pg/mL
same,IFN-γ (pg/ml) mean,[12],2 pg/mL
same,"immunomodulatory activity (IFN-γ / IFN-α secretion), in words",,None of the CICs was active when used alone
5′-TCGTCGA-3′-HEG-5′-AACGTTC-3′-HEG-5′-AGATGAT-3′ [Compound C-54],IFN-α,"Table 13, donor 28156",8 pg/mL
same,IFN-γ,"Table 13, donor 28156",297 pg/mL
same,IFN-α,"Table 13, donor 28157",96 pg/mL
same,IFN-γ,"Table 13, donor 28157",378 pg/mL
same,IFN-α,"Table 13, donor 28158",8 pg/mL
same,IFN-γ,"Table 13, donor 28158",88 pg/mL
same,IFN-α,"Table 13, donor 28159",13 pg/mL
same,IFN-γ,"Table 13, donor 28159",218 pg/mL
same,IFN-α mean,"Table 13, mean of donors",31 pg/mL
same,IFN-γ mean,"Table 13, mean of donors",245 pg/mL
5′-TCGACGT-3′-HEG-5′-TCGACGT-3′-HEG-5′-TCGACGT-3′-HEG-5′-TCGACGT-3′ [Compound C-71],IFN-α,"Table 24, donor 28234",17 pg/mL
same,IFN-γ,"Table 24, donor 28234",30 pg/mL
same,IFN-α,"Table 24, donor 28235",30 pg/mL
same,IFN-γ,"Table 24, donor 28235",168 pg/mL
same,IFN-α,"Table 24, donor 28236",538 pg/mL
same,IFN-γ,"Table 24, donor 28236",448 pg/mL
same,IFN-α,"Table 24, donor 28237",1665 pg/mL
same,IFN-γ,"Table 24, donor 28237",1663 pg/mL
same,IFN-α mean,[11],563 pg/mL
same,IFN-γ mean,[11],577 pg/mL
5′-TCG-3′-HEG-5′-T-3′ [Compound C-68],IFN-a,"donor 28185, Table 15",4 pg/mL
same,IFN-g,"donor 28185, Table 15",0 pg/mL
same,IFN-a,"donor 28186, Table 15",13 pg/mL
same,IFN-g,"donor 28186, Table 15",4 pg/mL
same,IFN-a,"donor 28187, Table 15",25 pg/mL
same,IFN-g,"donor 28187, Table 15",2 pg/mL
same,IFN-a,"donor 28188, Table 15",4 pg/mL
same,IFN-g,"donor 28188, Table 15",1 pg/mL
same,IFN-a (pg/ml) mean,Table 15,11 pg/mL
same,IFN-g (pg/ml) mean,Table 15,2 pg/mL
same,IFN-a (pg/ml) ×2,Table 15,23 pg/mL
same,IFN-g (pg/ml) ×4,Table 15,7 pg/mL
same,"immunomodulatory activity (IFN-γ / IFN-α secretion), in words",,neither CIC was active on its own
"(5′-TCGACGT-HEG)2-glycerol-HEG-5′-CCTACTGAACCTCTAAGT-3′ (SEQ ID NO: 158) (DNA, all phosphorothioate, methylation of C not given here; Two heptamer DNA arms joined by HEG spacers and glycerol branching to the chain) [Compound C-203]",IFN-α,[1],102 pg/mL
same,IFN-α,[2],102 pg/mL
same,IFN-α,[3],102 pg/mL
same,IFN-α,[4],102 pg/mL
same,IFN-α mean,[5],102 pg/mL
same,IFN-α,"Example 59, 4 ug/ml, donor 48",691 pg/mL
same,IFN-α,"Example 59, 4 ug/ml, donor 177",487 pg/mL
same,IFN-α,"Example 59, 4 ug/ml, donor 272",102 pg/mL
same,IFN-α,"Example 59, 4 ug/ml, donor 273",102 pg/mL
same,IFN-α mean,[6],346 pg/mL
same,IFN-α,"Example 59, 20 ug/ml, donor 48",735 pg/mL
same,IFN-α,[7],681 pg/mL
same,IFN-α,[8],102 pg/mL
same,IFN-α,[9],102 pg/mL
same,IFN-α mean,[10],405 pg/mL
(5′-TCGTCGA-3′)2-glycerol-5′-AACGTTC-3′ [Compound C-27],IFN-γ (pg/ml) 28065,"donor 28065 (high background), 20 ug/ml, 24 h, + PLGA = premixed with 100 μg/ml cPLGA, 1000 = outside assay limits",475 pg/mL
same,IFN-α (pg/ml) 28065,"donor 28065, 20 ug/ml, 24 h, + PLGA = premixed with 100 μg/ml cPLGA",3 pg/mL
same,IFN-α (pg/ml) 28066,[14],0 pg/mL
same,IFN-γ (pg/ml) 28066,[14],3 pg/mL
same,IFN-α (pg/ml) 28067,[15],24 pg/mL
same,IFN-γ (pg/ml) 28067,[15],24 pg/mL
same,IFN-α (pg/ml) 28068,[16],16 pg/mL
same,IFN-γ (pg/ml) 28068,[16],226 pg/mL
same,IFN-a,"donor 28185, Table 15",4 pg/mL
same,IFN-g,"donor 28185, Table 15",49 pg/mL
same,IFN-a,"donor 28186, Table 15",4 pg/mL
same,IFN-g,"donor 28186, Table 15",3 pg/mL
same,IFN-a,"donor 28187, Table 15",39 pg/mL
same,IFN-g,"donor 28187, Table 15",21 pg/mL
same,IFN-a,"donor 28188, Table 15",4 pg/mL
same,IFN-g,"donor 28188, Table 15",3 pg/mL
same,IFN-α (pg/ml) mean,[17],11 pg/mL
same,IFN-γ (pg/ml) mean,[17],182 pg/mL
same,IFN-a (pg/ml) mean,Table 15,13 pg/mL
same,IFN-g (pg/ml) mean,Table 15,19 pg/mL
same,IFN-a (pg/ml) ×2,Table 15,25 pg/mL
same,IFN-g (pg/ml) ×4,Table 15,75 pg/mL

# — patent publication US9028845B2, “Chimeric immunomodulatory compounds and methods of using the same-IV” (Dynavax Technologies Corporation, priority 2001, dated 2015)
